Source: PubChem BioAssay AID504479 (NMMLSC, 2011)
Activity calls are given as the source filed them.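 The calls were made as follows: active = GFP ratio vs DMSO below 0.65 in a strain, using the primary screen cutoff set for that strain's protein target; inactive = the rest.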

Experiments:
Assay in all cases: TORC1 pathway position of GFP reporter effects – S. cerevisiae, TORC1 bypass vs wild-type strains, mechanism study for yeast TOR pathway modulator project (AID 504479)
Conditions in all cases: fluorescence ratio vs DMSO, at 10 µM
YBR084C-A = test system: YBR084C-A
YKL103C = test system: YKL103C
YCL025C = test system: YCL025C
YCR005C = test system: YCR005C
YNL142W = test system: YNL142W
BY4741 = test system: BY4741
[1] = RPL19A-GFP in TORC1 bypass strain, stronger effect = lower value
[2] = LAP4-GFP in TORC1 bypass strain, stronger effect = higher value
[3] = AGP1-GFP in TORC1 bypass strain, stronger effect = higher value
[4] = CIT2-GFP in TORC1 bypass strain, stronger effect = higher value
[5] = MEP2-GFP in TORC1 bypass strain, stronger effect = higher value

| Compound | GFP ratio vs DMSO (YBR084C-A; [1]) | GFP ratio vs DMSO (YBR084C-A) | GFP ratio vs DMSO (YKL103C; [2]) | GFP ratio vs DMSO (YKL103C) | GFP ratio vs DMSO (YCL025C; [3]) | GFP ratio vs DMSO (YCL025C) | GFP ratio vs DMSO (YCR005C; [4]) | GFP ratio vs DMSO (YCR005C) | GFP ratio vs DMSO (YNL142W; [5]) | GFP ratio vs DMSO (YNL142W) | GFP ratio vs DMSO (BY4741) |
| --- | --- | --- | --- | --- | --- | --- | --- | --- | --- | --- | --- |
| O=[N+]([O-])c1ccc(S(=O)(=O)c2cccc(C(F)(F)F)c2)nc1 | 0.969 | 0.902 (inactive) | 1.63 | 2.2 | 0.813 | 1.04 (inactive) | 0.934 | 0.976 (inactive) | 1.04 | 1.52 (inactive) | 1.03 (inactive) |
| Cc1ccc(S(=O)(=O)c2ccc([N+](=O)[O-])cn2)cc1 | 0.938 | 0.929 (inactive) | 1.67 | 2.26 | 0.813 | 1.11 (inactive) | 0.861 | 1.05 (inactive) | 0.948 | 1.29 (inactive) | 0.941 (inactive) |
| CN1CCN(C(c2ccc(C(F)(F)F)cc2)c2ccc3cccnc3c2O)CC1 (centres undefined) | 0.96 | 0.85 (inactive) | 1.29 | 1.58 | 0.842 | 0.994 (inactive) | 0.633 | 0.641 (inactive) | 0.978 | 0.993 (inactive) | 0.792 (inactive) |
| CC(C)(C)C(=O)C(Cl)C(=O)Nc1ccccc1 (centres undefined) | 0.997 | 0.885 (inactive) | 1.5 | 2.76 | 0.833 | 1.2 (inactive) | 1.58 | 1.65 | 0.969 | 1.24 (inactive) | 0.941 (inactive) |
| Clc1ccc(N=c2ssnc2Cl)cc1 | 1.08 | 1.02 (inactive) | 1.29 | 1.64 | 0.884 | 0.946 (inactive) | 1.02 | 1.25 (inactive) | 1.08 | 1.04 (inactive) | 1.09 (inactive) |
| CCCOc1ccc(C(=O)NNC(=S)NC(=O)CC)cc1 | 1.36 | 1.33 (inactive) | 1.92 | 2.96 | 0.969 | 1.17 (inactive) | 0.905 | 0.994 (inactive) | 1.3 | 1.24 (inactive) | 1.32 (inactive) |
| O=[N+]([O-])c1cc(O)c2ncccc2c1 | 0.993 | 1.01 (inactive) | 1.29 | 1.4 (inactive) | 0.739 | 0.763 (inactive) | 0.869 | 0.806 (inactive) | 0.918 | 0.698 (inactive) | 1.5 (inactive) |
| Cc1ccc(C(=O)NNC(=S)NC(=O)COc2ccccc2)cc1 | 1.22 | 1.27 (inactive) | 1.45 | 2.49 | 0.914 | 1.11 (inactive) | 0.861 | 0.988 (inactive) | 1.25 | 1.22 (inactive) | 1.29 (inactive) |
| Cc1cc(C(=O)Nc2nc(-c3ccccn3)cs2)ccc1[N+](=O)[O-] | 0.905 | 0.985 (inactive) | 0.998 | 1.02 (inactive) | 1.03 | 1.05 (inactive) | 0.839 | 0.907 (inactive) | 1.04 | 0.972 (inactive) | 0.896 (inactive) |
